We go through one compound from US20040132156A1, “Modified hepsin molecules having a substitute activation sequence and uses thereof” (Schering Aktiengesellschaft, priority 2002, published 2004).

Read-outs that look alike come from different tables or passages of the source.

The subject of this experiment is hepsin mRNA in LNCaP cells. The following applies: DHT 10 nM, 24 or 72 hours, Northern blot, compared to GAPDH. As for the experimental part: The prostate cancer cell lines, LNCaP, were obtained from ATCC. The LNCaP cells were treated with dihydrotestosterone (Sigma A 8380) in order to study the response of hepsin mRNA expression to androgens. The confluent cells were cultured in growth medium containing charcoal-stripped FBS for 24 hours. DHT was added to each flask at 10 nM. For control cells, ethanol was added as a vehicle control. The cells were incubated for 24 or 72 hours.
Total RNA was isolated from the cell lines using the RNeasy Maxi Kit (Qiagen), as described in section E above. The Northern gel and blot methods were performed as described in section A above.
The fold-increase of the amount of hepsin mRNA compared to GAPDH was performed according to section C above.

Turning to `C[C@]12CCC(=O)C[C@@H]1CC[C@@H]1[C@@H]2CC[C@]2(C)[C@@H](O)CC[C@@H]12` [DHT, dihydrotestosterone], the “hepsin mRNA transcript levels” value was “increased”. The “hepsin mRNA transcript levels” value (listed as dihydrotestosterone) is “Up-regulation”.
